Reference: ChEMBL document CHEMBL4004838, “Design and synthesis of novel phenyl -1, 4-beta-carboline-hybrid molecules as potential anticancer agents” (Eur J Med Chem, 2017)

Experiments:
HCT-116 = test: Growth inhibition of human HCT116 cells incubated for 48 hrs by sulforhodamine B assay; format: functional; conditions: HCT-116, 48 h
SK-MEL-5 = test: Growth inhibition of human SK-MEL-5 cells incubated for 48 hrs by sulforhodamine B assay; format: functional; conditions: SK-MEL-5, 48 h
RXF 393 = test: Growth inhibition of human RXF393 cells incubated for 48 hrs by sulforhodamine B assay; format: functional; conditions: RXF 393, 48 h
DU-145 [1] = test: Growth inhibition of human DU145 cells incubated for 48 hrs by sulforhodamine B assay; format: functional; conditions: DU-145, 48 h; for TGI: read-out: pTGI (converted)
COLO 205 = test: Growth inhibition of human COLO205 cells assessed as cell growth at 0.01 uM incubated for 48 hrs by sulforhodamine B assay relative to control; format: functional; conditions: COLO 205, 48 h, read-out: Activity
HT-29 = test: Growth inhibition of human HT-29 cells assessed as cell growth at 0.01 uM incubated for 48 hrs by sulforhodamine B assay relative to control; format: functional; conditions: HT-29, 48 h, read-out: Activity
SNB-75 = test: Growth inhibition of human SNB75 cells assessed as cell growth at 0.01 uM incubated for 48 hrs by sulforhodamine B assay relative to control; format: functional; conditions: SNB-75, 48 h, read-out: Activity
OVCAR-3 [2] = test: Growth inhibition of human OVCAR3 cells assessed as cell growth at 0.01 uM incubated for 48 hrs by sulforhodamine B assay relative to control; format: functional; conditions: OVCAR-3, 48 h, read-out: Activity
ACHN = test: Growth inhibition of human ACHN cells assessed as cell growth at 0.01 uM incubated for 48 hrs by sulforhodamine B assay relative to control; format: functional; conditions: read-out: Activity
UO-31 [3] = test: Growth inhibition of human UO31 cells assessed as cell growth at 0.01 uM incubated for 48 hrs by sulforhodamine B assay relative to control; format: functional; conditions: UO-31, 48 h, read-out: Activity
DU-145 [4] = test: Growth inhibition of human DU145 cells assessed as cell growth at 0.01 uM incubated for 48 hrs by sulforhodamine B assay relative to control; format: functional; conditions: DU-145, 48 h, read-out: Activity
MDA-MB-468 = test: Growth inhibition of human MDA-MB-468 cells assessed as cell growth at 0.01 uM incubated for 48 hrs by sulforhodamine B assay relative to control; format: functional; conditions: MDA-MB-468, 48 h, read-out: Activity
CCRF-CEM = test: Growth inhibition of human CCRF-CEM cells assessed as cell growth at 0.1 uM incubated for 48 hrs by sulforhodamine B assay relative to control; format: functional; conditions: read-out: Activity
HOP-62 = test: Growth inhibition of human HOP62 cells assessed as cell growth at 0.1 uM incubated for 48 hrs by sulforhodamine B assay relative to control; format: functional; conditions: HOP-62, 48 h, read-out: Activity
NCI-H226 = test: Growth inhibition of human NCI-H226 cells assessed as cell growth at 0.1 uM incubated for 48 hrs by sulforhodamine B assay relative to control; format: functional; conditions: NCI-H226, 48 h, read-out: Activity
NCI-H460 = test: Growth inhibition of human NCI-H460 cells assessed as cell growth at 0.1 uM incubated for 48 hrs by sulforhodamine B assay relative to control; format: functional; conditions: NCI-H460, 48 h, read-out: Activity
SK-MEL-28 = test: Growth inhibition of human SK-MEL-28 cells assessed as cell growth at 0.1 uM incubated for 48 hrs by sulforhodamine B assay relative to control; format: functional; conditions: SK-MEL-28, 48 h, read-out: Activity
UO-31 [5] = test: Growth inhibition of human UO31 cells assessed as cell growth at 0.1 uM incubated for 48 hrs by sulforhodamine B assay relative to control; format: functional; conditions: UO-31, 48 h, read-out: Activity
KM12 = test: Growth inhibition of human KM12 cells assessed as cell growth at 1 uM incubated for 48 hrs by sulforhodamine B assay relative to control; format: functional; conditions: KM12, 48 h, read-out: Activity
MDA-MB-435 = test: Growth inhibition of human MDA-MB-435 cells assessed as cell growth at 1 uM incubated for 48 hrs by sulforhodamine B assay relative to control; format: functional; conditions: MDA-MB-435, 48 h, read-out: Activity
OVCAR-3 [6] = test: Growth inhibition of human OVCAR3 cells assessed as cell growth at 1 uM incubated for 48 hrs by sulforhodamine B assay relative to control; format: functional; conditions: OVCAR-3, 48 h, read-out: Activity
K562 = test: Growth inhibition of human K562 cells assessed as cell growth at 100 uM incubated for 48 hrs by sulforhodamine B assay relative to control; format: functional; conditions: K562, 48 h, read-out: Activity
MOLT-4 = test: Growth inhibition of human MOLT4 cells assessed as cell growth at 100 uM incubated for 48 hrs by sulforhodamine B assay relative to control; format: functional; conditions: MOLT-4, 48 h, read-out: Activity
NCI-H322M = test: Growth inhibition of human NCI-H322M cells assessed as cell growth at 100 uM incubated for 48 hrs by sulforhodamine B assay relative to control; format: functional; conditions: read-out: Activity
SF-295 = test: Growth inhibition of human SF295 cells assessed as cell growth at 100 uM incubated for 48 hrs by sulforhodamine B assay relative to control; format: functional; conditions: SF-295, 48 h, read-out: Activity
SNB-19 = test: Growth inhibition of human SNB19 cells assessed as cell growth at 100 uM incubated for 48 hrs by sulforhodamine B assay relative to control; format: functional; conditions: SNB-19, 48 h, read-out: Activity
OVCAR-3 [7] = test: Growth inhibition of human OVCAR3 cells assessed as cell growth at 100 uM incubated for 48 hrs by sulforhodamine B assay relative to control; format: functional; conditions: OVCAR-3, 48 h, read-out: Activity
OVCAR-5 = test: Growth inhibition of human OVCAR5 cells assessed as cell growth at 100 uM incubated for 48 hrs by sulforhodamine B assay relative to control; format: functional; conditions: OVCAR-5, 48 h, read-out: Activity
786-0 = test: Growth inhibition of human 786-0 cells assessed as cell growth at 100 uM incubated for 48 hrs by sulforhodamine B assay relative to control; format: functional; conditions: 786-0, 48 h, read-out: Activity
Hs-578T = test: Growth inhibition of human Hs 578T cells assessed as cell growth at 100 uM incubated for 48 hrs by sulforhodamine B assay relative to control; format: functional; conditions: read-out: Activity
Albumin = Albumin (Bos taurus, UniProt P02769); test: Binding affinity to Bovine serum albumin assessed as at 0.10 to 1 uM by UV-Visible spectrophotometric method; format: ADME; conditions: cattle, isolated protein
[8] = read-out: LC50 (the source's name)
[9] = read-out: pLC50 (the source's name) (converted)

Chain of Albumin (P02769 whole entry): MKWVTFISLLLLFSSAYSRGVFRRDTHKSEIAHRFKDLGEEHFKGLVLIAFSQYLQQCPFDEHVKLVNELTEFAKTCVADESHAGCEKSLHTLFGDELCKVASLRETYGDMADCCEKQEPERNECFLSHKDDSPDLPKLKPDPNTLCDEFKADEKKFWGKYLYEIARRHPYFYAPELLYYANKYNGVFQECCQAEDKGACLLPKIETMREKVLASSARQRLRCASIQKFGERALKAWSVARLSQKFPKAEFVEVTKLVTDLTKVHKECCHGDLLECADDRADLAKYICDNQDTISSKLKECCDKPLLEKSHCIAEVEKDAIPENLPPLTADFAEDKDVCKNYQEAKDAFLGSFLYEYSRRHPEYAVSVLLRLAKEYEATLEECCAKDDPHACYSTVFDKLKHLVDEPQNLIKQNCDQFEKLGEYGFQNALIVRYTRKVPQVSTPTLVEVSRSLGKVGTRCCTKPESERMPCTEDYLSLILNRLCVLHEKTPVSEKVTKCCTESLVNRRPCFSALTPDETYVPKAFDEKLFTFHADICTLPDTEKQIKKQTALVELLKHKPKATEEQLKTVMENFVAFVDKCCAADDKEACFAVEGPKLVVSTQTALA

## c1ccc2c3c([nH]c2c1)C(c1ccc(C2NCCc4c2[nH]c2ccccc42)cc1)NCC3 (racemic)
HCT-116; read-out: GI50
  GI50: 1.7 µM
HCT-116; [8]
  CC50: 6.59 µM
HCT-116; read-out: TGI
  TGI: 3.35 µM
HCT-116; read-out: pGI50 (converted)
  GI50: 0.17 µM
HCT-116; [9]
  CC50: 0.661 µM
SK-MEL-5; read-out: GI50
  GI50: 1.7 µM
SK-MEL-5; [8]
  CC50: 5.75 µM
SK-MEL-5; read-out: TGI
  TGI: 3.13 µM
SK-MEL-5; read-out: pGI50 (converted)
  GI50: 1.7 µM
SK-MEL-5; [9]
  CC50: 5.75 µM
SK-MEL-5; read-out: pTGI (converted)
  TGI: 3.16 µM
RXF 393; read-out: GI50
  GI50: 1.31 µM
RXF 393; [8]
  CC50: 5.45 µM
RXF 393; read-out: TGI
  TGI: 2.67 µM
RXF 393; read-out: pGI50 (converted)
  GI50: 1.32 µM
RXF 393; [9]
  CC50: 5.5 µM
RXF 393; read-out: pTGI (converted)
  TGI: 2.69 µM
DU-145 [1]; [8]
  CC50: 5.16 µM
DU-145 [1]; read-out: pGI50 (converted)
  GI50: 0.741 µM
DU-145 [1]; [9]
  CC50: 5.13 µM
DU-145 [1]
  TGI: 2.14 µM
COLO 205
  growth at 0.01 µM: 95%
HT-29
  growth at 0.01 µM: 104%
SNB-75
  growth at 0.01 µM: 78%
OVCAR-3 [2]
  growth at 0.01 µM: 100%
ACHN
  growth at 0.01 µM: 92%
UO-31 [3]
  growth at 0.01 µM: 89%
DU-145 [4]
  growth at 0.01 µM: 100%
MDA-MB-468
  growth at 0.01 µM: 95%
CCRF-CEM
  growth at 0.1 µM: 104%
HOP-62
  growth at 0.1 µM: 85%
NCI-H226
  growth at 0.1 µM: 95%
NCI-H460
  growth at 0.1 µM: 106%
SK-MEL-28
  growth at 0.1 µM: 96%
UO-31 [5]
  growth at 0.1 µM: 74%
KM12
  growth at 1 µM: 54%
MDA-MB-435
  growth at 1 µM: 11%
OVCAR-3 [6]
  growth at 1 µM: 65%
K562
  growth at 100 µM: 78%
MOLT-4
  growth at 100 µM: 76%
NCI-H322M
  growth at 100 µM: 96%
SF-295
  growth at 100 µM: 89%
SNB-19
  growth at 100 µM: 88%
OVCAR-3 [7]
  growth at 100 µM: 82%
OVCAR-5
  growth at 100 µM: 90%
786-0
  growth at 100 µM: -85%
Hs-578T
  growth at 100 µM: -65%
Albumin
  Activity: Active

## c1ccc2[nH]c(-c3ccc(-c4nccc5c4[nH]c4ccccc45)cc3)nc2c1
HCT-116; [8]
  CC50: 4.43 µM
HCT-116; read-out: pGI50 (converted)
  GI50: 2.82 µM
HCT-116; [9]
  CC50: 44.7 µM
HCT-116; read-out: pTGI (converted)
  TGI: 10.5 µM
SK-MEL-5; [8]
  CC50: 4.42 µM
SK-MEL-5; read-out: pGI50 (converted)
  GI50: 3.72 µM
SK-MEL-5; [9]
  CC50: 44.7 µM
SK-MEL-5; read-out: pTGI (converted)
  TGI: 14.5 µM
RXF 393; read-out: GI50
  GI50: 1.93 µM
RXF 393; [8]
  CC50: 6.45 µM
RXF 393; read-out: TGI
  TGI: 3.53 µM
RXF 393; read-out: pGI50 (converted)
  GI50: 1.95 µM
RXF 393; [9]
  CC50: 6.46 µM
RXF 393; read-out: pTGI (converted)
  TGI: 3.55 µM
DU-145 [1]; read-out: GI50
  GI50: 4.02 µM
DU-145 [1]; [8]
  CC50: 5.74 µM
DU-145 [1]; read-out: pGI50 (converted)
  GI50: 3.98 µM
DU-145 [1]; [9]
  CC50: 57.5 µM
DU-145 [1]
  TGI: 16.2 µM
COLO 205
  growth at 0.01 µM: 94%
HT-29
  growth at 0.01 µM: 100%
SNB-75
  growth at 0.01 µM: 81%
OVCAR-3 [2]
  growth at 0.01 µM: 101%
ACHN
  growth at 0.01 µM: 99%
UO-31 [3]
  growth at 0.01 µM: 89%
DU-145 [4]
  growth at 0.01 µM: 98%
MDA-MB-468
  growth at 0.01 µM: 90%
CCRF-CEM
  growth at 0.1 µM: 102%
HOP-62
  growth at 0.1 µM: 89%
NCI-H226
  growth at 0.1 µM: 104%
NCI-H460
  growth at 0.1 µM: 110%
SK-MEL-28
  growth at 0.1 µM: 98%
UO-31 [5]
  growth at 0.1 µM: 91%
KM12
  growth at 1 µM: 89%
MDA-MB-435
  growth at 1 µM: 91%
OVCAR-3 [6]
  growth at 1 µM: 92%
K562
  growth at 100 µM: 59%
MOLT-4
  growth at 100 µM: 54%
NCI-H322M
  growth at 100 µM: 75%
SF-295
  growth at 100 µM: 71%
SNB-19
  growth at 100 µM: 29%
OVCAR-3 [7]
  growth at 100 µM: 58%
OVCAR-5
  growth at 100 µM: 62%
786-0
  growth at 100 µM: 70%
Hs-578T
  growth at 100 µM: 46%
Albumin
  Activity: Active
